Measured values as given in publication PMC8159387 (Chemical Science, 2020).
Square brackets hold non-standard residues; d marks the D form. Peptide text beside a SMILES is read from it. * marks the point of attachment. CH2CH2OBz(4-tBu) = CC(C)(C)c1ccc(C(=O)OCC*)cc1; dDab = NCC[C@@H](N)C(=O)O; Dab = NCC[C@H](N)C(=O)O; Mpa = O=C(O)CCS

Test system: E. coli, P. aeruginosa, A. calcoaceticus and S. aureus
Experiment: MIC and MBC summarised across the test species
Format: cell-based
Conditions: species not given

| Structure (SMILES) | lowest MIC values of the CLipPA analogues [μM] |
| --- | --- |
| CC(C)C[C@H](NC(=O)[C@H](CCN)NC(=O)[C@H](CCN)NC(=O)[C@@H](Cc1ccccc1)NC(=O)[C@H](CC(C)C)NC(=O)[C@H](CCN)NC(=O)[C@H](CCN)NC(=O)[C@@H](CCN)NC(=O)[C@@H](N)CSCCOC(=O)c1ccc(C(C)(C)C)cc1)C(N)=O [Peptide 12f] (H-C(CH2CH2OBz(4-tBu))[dDab][Dab][Dab]L[dF][Dab][Dab]L-NH2) | 8 |
| CC(C)C[C@H](NC(=O)[C@H](CCN)NC(=O)[C@H](CCN)NC(=O)[C@@H](Cc1ccccc1)NC(=O)[C@H](CC(C)C)NC(=O)[C@H](CCN)NC(=O)[C@H](CCN)NC(=O)[C@@H](CCN)NC(=O)CCSCCOC(=O)c1ccc(C(C)(C)C)cc1)C(N)=O [Peptide 13f] ([Mpa](CH2CH2OBz(4-tBu))[dDab][Dab][Dab]L[dF][Dab][Dab]L-NH2) | 8 |
